# Measured values as given in patent US20050233985A1, “Rsk inhibitors and therapeutic uses thereof” (priority 2003, published 2005).
# Entries after “also recorded” stand apart in the source; their conditions may differ. Where two headings read alike, the source gives them in different places.
# Tests used:
# Rsk2 [1] = target: T1, Rsk2 (Homo sapiens, UniProt P51812, Y707A); assay: Rsk kinase ELISA with immobilized substrate and phosphospecific antibodies; type: biochemical
# T1 construct: His; made in house; host or cells: Sf9 (baculovirus, Bac-to-Bac)
# T1 sequence (P51812 whole entry Y707A): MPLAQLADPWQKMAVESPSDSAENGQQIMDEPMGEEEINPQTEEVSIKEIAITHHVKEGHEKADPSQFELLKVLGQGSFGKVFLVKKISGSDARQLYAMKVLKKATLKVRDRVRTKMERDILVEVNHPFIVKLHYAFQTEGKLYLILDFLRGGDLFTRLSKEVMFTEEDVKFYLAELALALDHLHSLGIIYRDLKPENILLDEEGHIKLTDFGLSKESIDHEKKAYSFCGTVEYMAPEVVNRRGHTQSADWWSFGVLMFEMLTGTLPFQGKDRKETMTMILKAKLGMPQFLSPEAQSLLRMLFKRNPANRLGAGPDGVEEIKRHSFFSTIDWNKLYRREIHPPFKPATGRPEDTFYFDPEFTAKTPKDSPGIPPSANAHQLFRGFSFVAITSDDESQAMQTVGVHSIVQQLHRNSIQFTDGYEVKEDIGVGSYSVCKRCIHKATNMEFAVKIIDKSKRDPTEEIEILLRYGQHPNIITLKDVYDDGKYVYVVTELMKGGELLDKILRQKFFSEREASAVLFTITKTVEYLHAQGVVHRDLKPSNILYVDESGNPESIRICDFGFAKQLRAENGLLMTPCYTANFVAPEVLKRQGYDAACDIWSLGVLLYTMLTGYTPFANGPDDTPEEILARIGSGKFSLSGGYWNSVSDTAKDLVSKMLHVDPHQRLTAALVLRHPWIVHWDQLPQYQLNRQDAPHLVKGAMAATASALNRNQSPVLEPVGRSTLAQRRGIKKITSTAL
# [2] = target: T2, Focal Adhesion Kinase (FAK) (Homo sapiens, UniProt Q05397); assay: FAK tyrosine kinase ELISA; type: biochemical; details: purified compounds
# T2 construct: the catalytic domain of the tyrosine kinase, Focal Adhesion Kinase (FAK); His; made in house; host or cells: Sf9 (baculovirus, Bac-to-Bac)
# T2 sequence (Q05397 422-680 limits assumed, species assumed): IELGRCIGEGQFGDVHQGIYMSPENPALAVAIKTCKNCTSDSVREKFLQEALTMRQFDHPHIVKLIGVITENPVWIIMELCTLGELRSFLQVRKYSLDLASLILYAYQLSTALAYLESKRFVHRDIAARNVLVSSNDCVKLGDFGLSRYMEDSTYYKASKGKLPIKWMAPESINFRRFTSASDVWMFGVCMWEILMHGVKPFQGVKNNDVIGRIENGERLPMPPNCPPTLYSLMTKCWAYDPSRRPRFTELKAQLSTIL
# protein kinase A (PKA) = target: T3, protein kinase A (PKA) (Homo sapiens, UniProt P17612); assay: PKA kinase ELISA; type: biochemical; details: purified compounds
# T3 construct: made in house; host or cells: bacteria
# Protocol: (§1) Kinase Assays. Glutathione-S-transferase (GST)-fusion protein (1 g) containing the sequence -[…] (SEQ ID NO: 3, for serine/threonine kinase assays) or -[…] (SEQ ID NO: 4, for tyrosine kinase assays) was adsorbed in the wells of LumiNunc 96-well polystyrene plates (MaxiSorp surface treatment). The wells were blocked with sterile 3% tryptone in phosphate buffered saline and stored at 4° C. for up to 6 months. Kinase (5 nM) in 70 μl of kinase buffer (5 mM -glycerophosphate pH 7.4, 25 mM HEPES pH 7.4, 1.5 mM DTT, 30 mM MgCl2, 0.15 M NaCl) was dispensed into each well. Compound at indicated concentrations or vehicle was added, and reactions were initiated by the addition of 30 μl of ATP for a final ATP concentration of 10 μM unless indicated otherwise. Reactions were terminated after 10 to 45 min by addition of 75 μl of 500 mM EDTA, pH 7.5. All assays measured the initial velocity of reaction. After extensive washing of wells, polyclonal phosphospecific antibody developed against the phosphopeptide and HRP-conjugated anti-rabbit antibody (211-035-109, Jackson ImmunoResearch Laboratories) were used to detect serine phosphorylation of the substrate. HRP-conjugated anti-phospho-tyrosine antibody (RC20, BD Transduction Laboratories) was used for phospho-tyrosine detection. His-tagged active Rsk and FAK were expressed in Sf9 cells and purified using NiNTA resin (Qiagen). Baculovirus was prepared using the Bac-to-Bac® baculovirus expression system (Invitrogen). PKA was bacterially expressed and activated as described (Anal. Biochem. 245, 115-122 (1997)). Active Msk1 and p70 S6 kinase was purchased from Upstate Biotechnology. Immunoprecipitation and kinase assays were performed as previously described (Poteet-Smith et al., J. Biol. Chem, 274, 22135-22138 (1999) using the immobilized GST-fusion proteins and ELISAs as above.
# p70 S6K = target: T4, p70 S6K (Homo sapiens, UniProt P23443); assay: p70 S6K kinase ELISA; type: biochemical; details: purified compounds
# T4 construct: purchased Upstate Biotechnology
# T4 sequence (P23443 24-525): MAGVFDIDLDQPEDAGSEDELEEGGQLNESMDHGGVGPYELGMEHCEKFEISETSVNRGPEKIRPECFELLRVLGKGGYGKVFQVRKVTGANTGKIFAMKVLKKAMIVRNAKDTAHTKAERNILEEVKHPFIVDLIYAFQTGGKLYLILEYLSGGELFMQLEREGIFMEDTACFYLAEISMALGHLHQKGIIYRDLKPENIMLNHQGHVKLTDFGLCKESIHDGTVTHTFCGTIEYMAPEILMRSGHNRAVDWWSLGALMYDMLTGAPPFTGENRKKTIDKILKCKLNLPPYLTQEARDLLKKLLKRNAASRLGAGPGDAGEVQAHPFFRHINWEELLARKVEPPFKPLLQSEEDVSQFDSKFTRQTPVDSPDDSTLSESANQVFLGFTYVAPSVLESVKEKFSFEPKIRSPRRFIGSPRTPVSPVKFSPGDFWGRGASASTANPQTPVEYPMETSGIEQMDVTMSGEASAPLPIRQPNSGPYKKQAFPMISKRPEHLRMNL
# Protocol: as §1
# Msk1 = target: T5, Msk1 (Homo sapiens, UniProt O75582); assay: Msk1 kinase ELISA; type: biochemical; details: purified compounds
# T5 construct: purchased Upstate Biotechnology
# T5 sequence (O75582 whole entry, species assumed): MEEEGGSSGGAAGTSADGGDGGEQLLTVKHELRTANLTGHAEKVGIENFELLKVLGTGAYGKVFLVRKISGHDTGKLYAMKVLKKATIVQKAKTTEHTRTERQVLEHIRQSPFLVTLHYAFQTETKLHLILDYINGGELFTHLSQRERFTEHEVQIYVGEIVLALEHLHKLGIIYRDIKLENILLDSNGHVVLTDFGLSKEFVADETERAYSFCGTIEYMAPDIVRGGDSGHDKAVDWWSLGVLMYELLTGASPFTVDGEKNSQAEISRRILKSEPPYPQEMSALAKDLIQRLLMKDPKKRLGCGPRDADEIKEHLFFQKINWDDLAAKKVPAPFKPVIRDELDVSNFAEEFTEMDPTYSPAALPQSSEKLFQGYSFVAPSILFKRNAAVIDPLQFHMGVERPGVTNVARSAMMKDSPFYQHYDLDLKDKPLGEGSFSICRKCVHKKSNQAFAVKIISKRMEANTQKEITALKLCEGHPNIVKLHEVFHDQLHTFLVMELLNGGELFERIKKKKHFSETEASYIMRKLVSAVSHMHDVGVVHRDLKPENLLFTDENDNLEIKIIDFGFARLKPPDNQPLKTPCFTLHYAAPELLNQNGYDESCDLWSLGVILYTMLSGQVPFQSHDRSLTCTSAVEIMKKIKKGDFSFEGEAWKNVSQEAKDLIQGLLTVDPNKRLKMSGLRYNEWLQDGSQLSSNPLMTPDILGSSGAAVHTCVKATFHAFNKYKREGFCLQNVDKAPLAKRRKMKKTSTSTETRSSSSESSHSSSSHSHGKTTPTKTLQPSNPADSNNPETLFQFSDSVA
# Protocol: as §1
# MCF-7 cells = type: cell-based
# Protocol: (§2) Cell viability was measured at indicated time points. Proliferation assays were conducted using CellTiter-Glo Luminescent Cell Viability Assay (Promega), performed 44 hrs after treatment for FIGS. 8A &B and at indicated points for FIG. 8C. The data are expressed relative to time 0.
# (§3) Cell Culture. For proliferation studies cells were seeded at 2500 to 5000 cells per well in 96 well tissue culture plates in the appropriate medium as described by American Type Culture Collection. After 24 hr, the medium was replaced with medium containing compound or vehicle as indicated. Cell viability was measured at indicated time points using CellTiter-Glo™ assay reagent (Promega) according to manufacturer's protocol. For in vivo inhibition studies, cells were seeded at 2.5×10^5 cells/well in 12 well cell culture clusters. After 24 hr, the cells were serum starved for 24 hr then incubated with compound or vehicle for 3 hr prior to a 30 min PDB stimulation. Cells were lysed as previously described (J. Biol. Chem. 273, 13317-13323 (1998)). The lysates were normalized for total protein, electrophoresed and immunoblotted. For cell imaging, Ha-Ras-transformed NIH/3T3 cells were seeded on LABTEK II chamber slides (Nalge) at a density of 1×10^4 cells/well. After 24 hr, fresh medium was added the indicated compounds or vehicle. Images were taken 48 hr after treatment at a magnification of 20×.
# MCF-10A cells = assay: Proliferation of MCF-10A cells (CellTiter-Glo); type: cell-based
# Protocol: as §2, §3
# [3] = tested on: p140 phosphorylation in MCF-7 cells; assay: PDB-induced p140 phosphorylation in MCF-7 cells (immunoblot); type: cell-based, human; details: 3 hr pre-incubation, 500 nM PDB 30 min
# Protocol: (§4) Cells were treated with 500 nM PDB for 30 min prior to lysis. Protein concentration of lysates was measured and lysates were electrophoresed, transferred and immunoblotted.
# as §3
# Rsk2 [4] = target: Rsk2 (Homo sapiens, UniProt P51812); assay: Kinase assay of immunoprecipitated HA-tagged Rsk2 from EGF-stimulated BHK21 cells; type: biochemical; details: 2 μM
# Sequence of Rsk2 (Homo sapiens, UniProt P51812) (P51812 whole entry, the tested form may be a part): as the sequence (P51812 whole entry Y707A) above, with A707Y counted along it
# Rsk2(1-389) = target: T6, Rsk2(1-389) (Homo sapiens, UniProt P51812); assay: Kinase assay of immunoprecipitated HA-tagged Rsk2 amino-terminal kinase domain; type: biochemical; details: 2 μM
# T6 construct: a truncation mutant of Rsk2 containing only the NTKD (Rsk2(1-389)); expressed in transfected cells; host or cells: BHK21, EGF-stimulated; anti-HA immunoprecipitate
# T6 sequence (P51812 1-389): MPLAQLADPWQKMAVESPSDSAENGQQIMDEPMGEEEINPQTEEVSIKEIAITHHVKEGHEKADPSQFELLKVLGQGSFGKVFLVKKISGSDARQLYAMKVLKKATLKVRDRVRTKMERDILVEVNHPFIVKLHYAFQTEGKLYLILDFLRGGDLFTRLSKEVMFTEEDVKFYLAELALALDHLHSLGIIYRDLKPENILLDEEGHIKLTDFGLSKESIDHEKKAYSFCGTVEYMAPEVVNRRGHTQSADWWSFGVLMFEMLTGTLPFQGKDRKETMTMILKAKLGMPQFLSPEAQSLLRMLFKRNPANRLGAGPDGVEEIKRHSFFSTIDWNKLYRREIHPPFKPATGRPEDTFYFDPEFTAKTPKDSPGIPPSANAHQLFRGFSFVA
# Rsk1 = target: T7, Rsk1 (Homo sapiens, UniProt Q15418); assay: Kinase assay of immunoprecipitated HA-tagged Rsk1; type: biochemical; details: 2 μM
# T7 construct: expressed in transfected cells; host or cells: BHK21, transiently transfected, EGF-stimulated; anti-HA immunoprecipitate
# T7 sequence (Q15418 whole entry): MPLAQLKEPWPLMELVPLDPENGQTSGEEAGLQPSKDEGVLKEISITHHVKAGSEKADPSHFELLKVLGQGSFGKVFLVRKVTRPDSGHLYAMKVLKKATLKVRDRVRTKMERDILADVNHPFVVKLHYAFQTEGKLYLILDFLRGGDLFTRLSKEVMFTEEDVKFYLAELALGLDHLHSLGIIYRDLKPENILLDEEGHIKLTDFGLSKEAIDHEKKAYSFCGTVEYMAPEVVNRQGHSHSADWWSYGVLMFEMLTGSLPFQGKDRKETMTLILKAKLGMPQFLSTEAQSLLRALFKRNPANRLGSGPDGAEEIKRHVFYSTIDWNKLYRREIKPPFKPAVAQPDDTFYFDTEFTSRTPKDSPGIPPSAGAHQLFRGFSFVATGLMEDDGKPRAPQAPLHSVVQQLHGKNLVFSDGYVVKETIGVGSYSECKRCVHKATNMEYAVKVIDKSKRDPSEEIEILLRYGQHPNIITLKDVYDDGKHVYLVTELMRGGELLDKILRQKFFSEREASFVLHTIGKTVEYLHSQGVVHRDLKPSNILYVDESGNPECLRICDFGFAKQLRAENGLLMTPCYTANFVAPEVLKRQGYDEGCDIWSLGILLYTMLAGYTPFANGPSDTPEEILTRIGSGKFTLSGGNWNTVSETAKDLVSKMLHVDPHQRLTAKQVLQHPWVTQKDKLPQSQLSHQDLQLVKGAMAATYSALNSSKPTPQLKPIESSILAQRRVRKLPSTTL
# From the text: (§5) To determine whether the unique adenosine-interacting loop is sufficient for SL0101-1 specificity, the isozyme specificity of SL0101-1 was examined. The primary structure of the NTKDs of the Rsk isoforms 1-3 are highly related, sharing 87% identity and each contain the unique adenosine-interacting loop. HA-tagged proteins were immunoprecipitated from the lysates of EGF-stimulated BHK21 cells transiently transfected with the indicated HA-tagged constructs (Rsk1, Rsk2 and Rsk3). Assays were performed as described immediately above.
# (§6) Kinase Assays. Glutathione-S-transferase (GST)-fusion protein (1 g) containing the sequence -[…] (SEQ ID NO: 3, for serine/threonine kinase assays) or -[…] (SEQ ID NO: 4, for tyrosine kinase assays) was adsorbed in the wells of LumiNunc 96-well polystyrene plates (MaxiSorp surface treatment). The wells were blocked with sterile 3% tryptone in phosphate buffered saline and stored at 4° C. for up to 6 months. Kinase (5 nM) in 70 μl of kinase buffer (5 mM -glycerophosphate pH 7.4, 25 mM HEPES pH 7.4, 1.5 mM DTT, 30 mM MgCl2, 0.15 M NaCl) was dispensed into each well. Compound at indicated concentrations or vehicle was added, and reactions were initiated by the addition of 30 μl of ATP for a final ATP concentration of 10 μM unless indicated otherwise. […] All assays measured the initial velocity of reaction. […]
# Rsk3 = target: T8, Rsk3 (Homo sapiens, UniProt Q15349); assay: Kinase assay of immunoprecipitated HA-tagged Rsk3; type: biochemical; details: 2 μM
# T8 construct: expressed in transfected cells; host or cells: BHK21, transiently transfected, EGF-stimulated; anti-HA immunoprecipitate
# T8 sequence (Q15349 whole entry): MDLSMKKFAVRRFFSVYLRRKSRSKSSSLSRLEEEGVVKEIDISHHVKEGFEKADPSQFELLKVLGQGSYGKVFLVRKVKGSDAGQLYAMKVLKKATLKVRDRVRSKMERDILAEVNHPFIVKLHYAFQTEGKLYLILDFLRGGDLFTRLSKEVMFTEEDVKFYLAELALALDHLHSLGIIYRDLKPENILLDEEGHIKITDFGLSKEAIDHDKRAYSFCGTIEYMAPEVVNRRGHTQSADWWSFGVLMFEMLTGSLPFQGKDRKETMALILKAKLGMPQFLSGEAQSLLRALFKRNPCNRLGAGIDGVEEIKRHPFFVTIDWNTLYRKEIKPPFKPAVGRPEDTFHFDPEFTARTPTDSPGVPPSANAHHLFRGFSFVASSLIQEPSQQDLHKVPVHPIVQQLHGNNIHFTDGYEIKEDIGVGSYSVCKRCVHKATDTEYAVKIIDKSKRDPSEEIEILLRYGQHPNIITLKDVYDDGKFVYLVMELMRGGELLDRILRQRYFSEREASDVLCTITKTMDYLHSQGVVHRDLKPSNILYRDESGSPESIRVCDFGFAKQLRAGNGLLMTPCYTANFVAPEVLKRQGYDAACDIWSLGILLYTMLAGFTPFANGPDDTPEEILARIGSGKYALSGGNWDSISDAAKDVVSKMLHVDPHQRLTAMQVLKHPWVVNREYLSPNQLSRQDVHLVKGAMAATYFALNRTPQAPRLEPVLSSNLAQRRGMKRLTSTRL
# From the text: as §5, §6
# [5] = tested on: Ha-ras-transformed NIH/3T3 cells; assay: Proliferation of transformed cells (CellTiter-Glo); type: cell-based
# Protocol: (§7) Cells were treated with vehicle, 50 μM SL0101, or 50 μM PD 98059 (PD 98059 is a MEK-specific inhibitor). Proliferation was measured using Promega CellTiter-Glo™ Luminescent cell viability assay.
# as §3
# parental NIH/3T3 cells = assay: Proliferation of parental cells (CellTiter-Glo); type: cell-based; details: 50 μM, compared to vehicle
# Protocol: as §7, §3
# LNCaP cells = assay: Proliferation of LNCaP cells (CellTiter-Glo); type: cell-based, human; details: 50 μM, 44 hrs after treatment
# Protocol: as §2, §3
# [6] = tested on: p140 phosphorylation in MCF-10A cells; assay: PDB-induced p140 phosphorylation in MCF-10A cells (immunoblot); type: cell-based; details: 3 hr pre-incubation, 500 nM PDB 30 min
# Protocol: as §4, §3
# MAPK, MEK, Raf and PKC = assay: Upstream MAPK pathway kinases in PDB-stimulated cells (Rsk mobility shift, anti-active MAPK); type: cell-based, human
# Protocol: Specific inhibition of Rsk in situ was determined by incubation of MCF-7 cells in the presence or absence of increasing concentrations of extract fraction enriched in SL0101 prior to stimulation of the MAPK pathway with phorbol dibutyrate (PDB). […] Thus, SL0101 is a Rsk-specific inhibitor in situ as well as in vitro and can be used as an investigative tool for defining the function of Rsk in situ.
# as §4, §3
# [7] = tested on: p140 phosphorylation in LNCaP cells; assay: p140 phosphorylation in LNCaP line (anti-RPM antibody); type: cell-based, human; details: efficacy paralleled inhibition of LNCaP proliferation
# Protocol: The ability of SL1011-1 to inhibit the proliferation of the androgen-dependent human prostate line, LNCaP was tested. […] To investigate the Rsk signal transduction pathway in the LNCaP line, a phosphospecific antibody to a Rsk phosphorylation motif (RPM) was produced. Only a few downstream effectors of Rsk have been identified and therefore, applicants anticipated that an anti-RPM antibody would be a very effective tool for identifying novel Rsk substrates in vivo. An anti-RPM antibody has previously been reported that recognizes the Rsk substrate, p140, a protein of unknown function. […] All lysates were normalized to each other using an anti-Ran antibody. Ran is used for normalization based on the observations that it is a general housekeeping protein, the activity or expression levels of which are not known to vary in any disease state.
# [8] = in vitro, increasing concentrations of compound, read-out: IC50 for Rsk catalytic activity
smiles,measurement,setting,value
"CC(=O)OC1C(C)OC(Oc2c(-c3ccc(O)cc3)oc3cc(O)cc(O)c3c2=O)C(OC(C)=O)C1O [SL0101-2, kaempferol 3-α-L-(2″,4″-diacetyl) rhamnopyranoside]",IC50,Rsk2 [1]; [8],0.58 µM
same,inhibition of FAK,[2],do not inhibit
same,inhibition of Protein Kinase A,protein kinase A (PKA),do not inhibit
same,inhibition of p70 S6 kinase,p70 S6K,do not inhibit
same,inhibition of MSK,Msk1,do not inhibit
"N#CC(=C(/N)Sc1ccccc1N)/C(C#N)=C(\N)Sc1ccccc1N [U0126, reference compound]",proliferation of MCF-7 cells,"MCF-7 cells; 50 μM, 44 hrs after treatment",halted proliferation
same,growth of MCF-10A cells,"MCF-10A cells; 50 μM, 44 hrs after treatment",halted proliferation
same,PDB-induced p140 phosphorylation,[3]; 50 μM,abrogates
"CC(=O)OC1C(C)OC(Oc2c(-c3ccc(O)cc3)oc3cc(O)cc(O)c3c2=O)C(O)C1O [SL0101-3, kaempferol-3-α-L-(4″-acetyl) rhamnopyranoside]",IC50,Rsk2 [1]; [8],0.19 µM
same,inhibition of FAK,[2],do not inhibit
same,inhibition of Protein Kinase A,protein kinase A (PKA),do not inhibit
same,inhibition of p70 S6 kinase,p70 S6K,do not inhibit
same,inhibition of MSK,Msk1,do not inhibit
"CC(=O)OC1C(C)OC(Oc2c(-c3ccc(O)cc3)oc3cc(O)cc(O)c3c2=O)C(O)C1OC(C)=O [SL0101-1, kaempferol 3-α-L-(3″,4″-diacetyl) rhamnopyranoside]",specificity for Rsk compared to p70 S6K and Msk1,"Rsk2 [1]; 5 μM inhibitor, 5 nM purified kinases, 30 mins, 10 μM ATP",specific for inhibition of Rsk activity; also recorded: specifically inhibits
same,mechanism of Rsk inhibition,Rsk2 [1]; with respect to ATP,competitive with respect to ATP
same,inhibition of FAK,[2],do not inhibit
same,inhibition of Protein Kinase A,protein kinase A (PKA),do not inhibit
same,inhibition of p70 S6 kinase,p70 S6K,do not inhibit
same,inhibition of MSK,Msk1,do not inhibit
same,Rsk2 activity,Rsk2 [4],potently reduced
same,inhibition of isolated Rsk2 NTKD,Rsk2(1-389),potently inhibited; also recorded: inhibits activity
same,Rsk1 activity,Rsk1,potently reduced
same,Rsk3 activity,Rsk3,only partially inhibited
same,reversibility of inhibition of cell proliferation (washout),"[5]; 50 μM for 48 hr, then medium replaced, viability 48 hr later",resulted in growth of the transformed cells; also recorded: reversible
same,proliferation of Ha-ras-transformed NIH/3T3 cells,"[5]; 50 μM, 48 hour time course, 10% fetal calf serum",decreased the growth rate; also recorded: halts proliferation; also recorded: inhibits; also recorded: inhibited the proliferation
same,toxicity to intact cells,[5]; Ha-Ras transformed and parental NIH/3T3 cells,not toxic
same,morphology of transformed cells,[5]; images 48 hr after treatment,striking morphology changes
same,proliferation of parental NIH/3T3 cells,parental NIH/3T3 cells,little effect; also recorded: little influence; also recorded: not the parental cells
same,cell death of MCF-7 cells,MCF-7 cells; 50 μM,did not cause cell death
same,MCF-7 cell viability compared to vehicle control,MCF-7 cells; 50 μM in serum-free medium (serum deprivation),significantly reduced cell viability
same,proliferation of MCF-7 cells,"MCF-7 cells; 50 μM, 44 hrs after treatment",inhibited proliferation; also recorded: inhibits the proliferation
same,growth of MCF-10A cells,"MCF-10A cells; 50 μM, 44 hrs after treatment",no effect; also recorded: without preventing the proliferation
same,proliferation of LNCaP cells,LNCaP cells,completely inhibit
same,PDB-induced p140 phosphorylation,[3]; 100 μM,abrogates
same,PDB-induced p140 phosphorylation in MCF-10A cells,[6],prevented
same,activation of MAPK (anti-active MAPK antibody),"MAPK, MEK, Raf and PKC",does not effect
same,"inhibition of upstream kinases PKC, Raf, MEK, MAPK in cells","MAPK, MEK, Raf and PKC",does not inhibit
same,phosphorylation of Rsk by MAPK (reduced electrophoretic mobility),"MAPK, MEK, Raf and PKC",does not effect
same,phosphorylation of p140,[7],decrease the phosphorylation
"Cn1cc(C2=C(c3cn(CCCSC(=N)N)c4ccccc34)C(=O)NC2=O)c2ccccc21 [Ro 318220, reference compound]",proliferation of MCF-7 cells,MCF-7 cells; 500 nM,attenuated proliferation
same,proliferation of MCF-10A cells,MCF-10A cells; 500 nM,attenuated proliferation
"COc1cccc(-c2cc(=O)c3ccccc3o2)c1N [PD 98059, reference compound]",influence on the proliferation rate,"[5]; 50 μM PD 98059, Ha-ras-transformed or parental NIH/3T3 cells",observed only when cells were incubated in the presence of low concentrations of fetal calf serum
"O=c1c(O)c(-c2ccc(O)cc2)oc2cc(O)cc(O)c12 [kaempferol, reference compound]",IC50,"Rsk2 [1]; in vitro kinase assay with immobilized substrate, read-out: IC50 for Rsk",15 µM
same,growth of MCF-7 cells,"MCF-7 cells; concentration not given, same extent as MCF-10A",slows growth
same,growth of MCF-10A cells,"MCF-10A cells; concentration not given, same extent as MCF-7",slows growth
